The supplement of paper PMC10307832

Key:
Assay in all cases: relative viability (nuclei count vs DMSO), 5 days (fraction); higher = more cells survive
[1] = compound: C1COCCN1C2=NC(=NC3=C2OC4=C3C=CC=N4)C5=CC(=CC=C5)NC(=O)C6=CN=C(C=C6)N + N=C(N)NC(=N)NCCc1ccccc1 [Phenformin] (partner 250 µM)
Outline: (§1)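 Relative viability divides the nuclei count in treated wells by that in vehicle wells. Lung cancer cell lines were seeded in 1536-well plates, dosed by pin tool the next day, and fixed and stained after 5 days in one step with final 0.05% Triton X-100, 1% formaldehyde and 1 ug/ml Hoechst. Dosing was a single drug or a fixed anchor-drug dose plus five library-drug doses (not always all listed) in √10 steps, and values are medians of duplicate plates imaged at 4×.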

[2] = compound: Nc1ccccc1NC(=O)c1ccc(CNC(=O)OCc2cccnc2)cc1 [Entinostat] + Cc1cc(Nc2cc(N3CCN(C)CC3)nc(Sc3ccc(NC(=O)C4CC4)cc3)n2)n[nH]1 [Tozasertib] (partner 0.1 µM)
Outline: as §1

[3] = compound: CN1CCC(CNc2ccc3ncc(-c4cccc(OC(F)(F)F)c4)n3n2)CC1 [SGI-1776] + C[C@@H](Oc1cc(-c2cnn(C3CCNCC3)c2)cnc1N)c1c(Cl)ccc(F)c1Cl [Crizotinib] (partner 1 µM)
Outline: as §1

[4] = compound: CN1CCC(CNc2ccc3ncc(-c4cccc(OC(F)(F)F)c4)n3n2)CC1 [SGI-1776] + N=C(N)NC(=N)NCCc1ccccc1 [Phenformin] (partner 250 µM)
Outline: as §1

## HARA
[1]; first compound 0.02 µM
  relative viability: 0.413
[1]; first compound 0.06325 µM
  relative viability: 0.586
[1]; first compound 0.2 µM
  relative viability: 0.487
[1]; first compound 0.6325 µM
  relative viability: 0.431
[1]; first compound 2 µM
  relative viability: 0.363
[2]; first compound 0.02 µM
  relative viability: 0.121
[2]; first compound 0.06325 µM
  relative viability: 0.123
[2]; first compound 0.2 µM
  relative viability: 0.138
[2]; first compound 0.6325 µM
  relative viability: 0.117
[2]; first compound 2 µM
  relative viability: 0.0945
[3]; first compound 0.08 µM
  relative viability: 1.17
[3]; first compound 0.8 µM
  relative viability: 1.17
[3]; first compound 2.53 µM
  relative viability: 1.01
[3]; first compound 8 µM
  relative viability: 0.775
[4]; first compound 0.08 µM
  relative viability: 0.532
[4]; first compound 0.8 µM
  relative viability: 0.337
[4]; first compound 2.53 µM
  relative viability: 0.354
[4]; first compound 8 µM
  relative viability: 0.318

## NCI-H1944
[1]; first compound 0.02 µM
  relative viability: 0.217
[1]; first compound 0.06325 µM
  relative viability: 0.244
[1]; first compound 0.2 µM
  relative viability: 0.182
[1]; first compound 0.6325 µM
  relative viability: 0.194
[1]; first compound 2 µM
  relative viability: 0.142
[2]; first compound 0.02 µM
  relative viability: 0.224
[2]; first compound 0.06325 µM
  relative viability: 0.215
[2]; first compound 0.2 µM
  relative viability: 0.204
[2]; first compound 0.6325 µM
  relative viability: 0.162
[2]; first compound 2 µM
  relative viability: 0.132
[3]; first compound 0.08 µM
  relative viability: 1.1
[3]; first compound 0.8 µM
  relative viability: 0.956
[3]; first compound 2.53 µM
  relative viability: 1.03
[3]; first compound 8 µM
  relative viability: 0.867
[4]; first compound 0.08 µM
  relative viability: 0.186
[4]; first compound 0.8 µM
  relative viability: 0.188
[4]; first compound 2.53 µM
  relative viability: 0.189
[4]; first compound 8 µM
  relative viability: 0.164

## NCI-H2405
[1]; first compound 0.02 µM
  relative viability: 0.373
[1]; first compound 0.06325 µM
  relative viability: 0.41
[1]; first compound 0.2 µM
  relative viability: 0.37
[1]; first compound 0.6325 µM
  relative viability: 0.353
[1]; first compound 2 µM
  relative viability: 0.338
[2]; first compound 0.02 µM
  relative viability: 0.736
[2]; first compound 0.06325 µM
  relative viability: 0.78
[2]; first compound 0.2 µM
  relative viability: 0.607
[2]; first compound 0.6325 µM
  relative viability: 0.524
[2]; first compound 2 µM
  relative viability: 0.319
[3]; first compound 0.08 µM
  relative viability: 0.857
[3]; first compound 0.8 µM
  relative viability: 0.809
[3]; first compound 2.53 µM
  relative viability: 0.854
[3]; first compound 8 µM
  relative viability: 0.642
[4]; first compound 0.08 µM
  relative viability: 0.384
[4]; first compound 0.8 µM
  relative viability: 0.304
[4]; first compound 2.53 µM
  relative viability: 0.215
[4]; first compound 8 µM
  relative viability: 0.227

## 201T
[1]; first compound 0.02 µM
  relative viability: 0.452
[1]; first compound 0.06325 µM
  relative viability: 0.448
[1]; first compound 0.2 µM
  relative viability: 0.443
[1]; first compound 0.6325 µM
  relative viability: 0.428
[1]; first compound 2 µM
  relative viability: 0.33
[2]; first compound 0.02 µM
  relative viability: 0.898
[2]; first compound 0.06325 µM
  relative viability: 0.811
[2]; first compound 0.2 µM
  relative viability: 0.589
[2]; first compound 0.6325 µM
  relative viability: 0.501
[2]; first compound 2 µM
  relative viability: 0.385
[3]; first compound 0.08 µM
  relative viability: 1.05
[3]; first compound 0.8 µM
  relative viability: 1.04
[3]; first compound 2.53 µM
  relative viability: 1.01
[3]; first compound 8 µM
  relative viability: 1.01
[4]; first compound 0.08 µM
  relative viability: 0.442
[4]; first compound 0.8 µM
  relative viability: 0.461
[4]; first compound 2.53 µM
  relative viability: 0.415
[4]; first compound 8 µM
  relative viability: 0.471

## PC-3 [JPC-3]
[1]; first compound 0.02 µM
  relative viability: 0.485
[1]; first compound 0.06325 µM
  relative viability: 0.491
[1]; first compound 0.2 µM
  relative viability: 0.453
[1]; first compound 0.6325 µM
  relative viability: 0.469
[1]; first compound 2 µM
  relative viability: 0.443
[2]; first compound 0.02 µM
  relative viability: 0.898
[2]; first compound 0.06325 µM
  relative viability: 0.786
[2]; first compound 0.2 µM
  relative viability: 0.685
[2]; first compound 0.6325 µM
  relative viability: 0.59
[2]; first compound 2 µM
  relative viability: 0.326
[3]; first compound 0.08 µM
  relative viability: 0.978
[3]; first compound 0.8 µM
  relative viability: 1.05
[3]; first compound 2.53 µM
  relative viability: 0.981
[3]; first compound 8 µM
  relative viability: 0.904
[4]; first compound 0.08 µM
  relative viability: 0.509
[4]; first compound 0.8 µM
  relative viability: 0.476
[4]; first compound 2.53 µM
  relative viability: 0.511
[4]; first compound 8 µM
  relative viability: 0.451

## NCI-H1734
[1]; first compound 0.02 µM
  relative viability: 0.372
[1]; first compound 0.06325 µM
  relative viability: 0.387
[1]; first compound 0.2 µM
  relative viability: 0.371
[1]; first compound 0.6325 µM
  relative viability: 0.338
[1]; first compound 2 µM
  relative viability: 0.251
[2]; first compound 0.02 µM
  relative viability: 0.25
[2]; first compound 0.06325 µM
  relative viability: 0.296
[2]; first compound 0.2 µM
  relative viability: 0.267
[2]; first compound 0.6325 µM
  relative viability: 0.215
[2]; first compound 2 µM
  relative viability: 0.22
[3]; first compound 0.08 µM
  relative viability: 0.658
[3]; first compound 0.8 µM
  relative viability: 0.686
[3]; first compound 2.53 µM
  relative viability: 0.617
[3]; first compound 8 µM
  relative viability: 0.402
[4]; first compound 0.08 µM
  relative viability: 0.41
[4]; first compound 0.8 µM
  relative viability: 0.366
[4]; first compound 2.53 µM
  relative viability: 0.394
[4]; first compound 8 µM
  relative viability: 0.284

## NCI-H1651
[1]; first compound 0.02 µM
  relative viability: 0.333
[1]; first compound 0.06325 µM
  relative viability: 0.302
[1]; first compound 0.2 µM
  relative viability: 0.315
[1]; first compound 0.6325 µM
  relative viability: 0.321
[1]; first compound 2 µM
  relative viability: 0.182
[2]; first compound 0.02 µM
  relative viability: 0.619
[2]; first compound 0.06325 µM
  relative viability: 0.705
[2]; first compound 0.2 µM
  relative viability: 0.584
[2]; first compound 0.6325 µM
  relative viability: 0.333
[2]; first compound 2 µM
  relative viability: 0.237
[3]; first compound 0.08 µM
  relative viability: 0.866
[3]; first compound 0.8 µM
  relative viability: 0.834
[3]; first compound 2.53 µM
  relative viability: 0.814
[3]; first compound 8 µM
  relative viability: 0.879
[4]; first compound 0.08 µM
  relative viability: 0.386
[4]; first compound 0.8 µM
  relative viability: 0.396
[4]; first compound 2.53 µM
  relative viability: 0.311
[4]; first compound 8 µM
  relative viability: 0.251

## NCI-H838
[1]; first compound 0.02 µM
  relative viability: 0.514
[1]; first compound 0.06325 µM
  relative viability: 0.687
[1]; first compound 0.2 µM
  relative viability: 0.485
[1]; first compound 0.6325 µM
  relative viability: 0.414
[1]; first compound 2 µM
  relative viability: 0.198
[2]; first compound 0.02 µM
  relative viability: 0.287
[2]; first compound 0.06325 µM
  relative viability: 0.261
[2]; first compound 0.2 µM
  relative viability: 0.239
[2]; first compound 0.6325 µM
  relative viability: 0.146
[2]; first compound 2 µM
  relative viability: 0.127
[3]; first compound 0.08 µM
  relative viability: 0.885
[3]; first compound 0.8 µM
  relative viability: 0.854
[3]; first compound 2.53 µM
  relative viability: 0.689
[3]; first compound 8 µM
  relative viability: 0.319
[4]; first compound 0.08 µM
  relative viability: 0.622
[4]; first compound 0.8 µM
  relative viability: 0.633
[4]; first compound 2.53 µM
  relative viability: 0.52
[4]; first compound 8 µM
  relative viability: 0.335

## NCI-H1915
[1]; first compound 0.02 µM
  relative viability: 0.338
[1]; first compound 0.06325 µM
  relative viability: 0.383
[1]; first compound 0.2 µM
  relative viability: 0.397
[1]; first compound 0.6325 µM
  relative viability: 0.392
[1]; first compound 2 µM
  relative viability: 0.302
[2]; first compound 0.02 µM
  relative viability: 0.446
[2]; first compound 0.06325 µM
  relative viability: 0.385
[2]; first compound 0.2 µM
  relative viability: 0.338
[2]; first compound 0.6325 µM
  relative viability: 0.267
[2]; first compound 2 µM
  relative viability: 0.212
[3]; first compound 0.08 µM
  relative viability: 0.945
[3]; first compound 0.8 µM
  relative viability: 0.864
[3]; first compound 2.53 µM
  relative viability: 0.833
[3]; first compound 8 µM
  relative viability: 0.918
[4]; first compound 0.08 µM
  relative viability: 0.37
[4]; first compound 0.8 µM
  relative viability: 0.368
[4]; first compound 2.53 µM
  relative viability: 0.382
[4]; first compound 8 µM
  relative viability: 0.357
